Patent US10456405B2, “Nitric oxide-releasing prodrug molecule of substituted quinazolines” (ZHEJIANG HUAHAI PHARMACEUTICAL CO., LTD, priority 2015, dated 2019)
Like-named read-outs stand apart in the source and are kept apart here.

What was measured:
[1] = Release of nitric oxide in vitro (Griess reagent, nitrite); conditions: 10^−4 mol/L tested substance, phosphate buffer pH 7.4, cysteine 5 mmol/L, 37° C., 1 h; as nitrite
Protocol: Experiment 1. Experimental Study on the Tested Compounds for Releasing Nitric Oxide in vitro
Experimental Procedure: • (1) Preparation of Griess Reagent: 4 g of aminobenzenesulfonamide, 0.2 g of N-naphthyl ethylene diamine hydrochloride, and 10 mL of 85% phosphoric acid solution were taken to form a solution, which is diluted to 100 mL with distilled water. • (2) Plotting of the standard curve: a serie of standard solution of 0.01, 0.03, 0.05, 0.07, 0.09, 0.2, 0.4 μg/mL of nitrite nitrogen was prepared, 10 mL of each was taken to sufficiently mix with 2.5 mL of Griess reagent, standing at room temperature for 10 min, and its absorbance value at the wavelength of 540 nm was measured. The standard curve was plotted based on the resulting data. • (3) Measuring the amount of the released NO of the tested drug: all of the tested substances were dissolved in dimethylsulfoxide (1 mL) firstly. Then phosphate buffer (pH 7.4) was slowly added dropwise, and shaken. The drug solution was diluted to 50 mL, allowing the buffer solution to contain excess cysteine (5 mmol/L), and the final concentration of the tested substances being 10^−4 mol/L; the solution was incubated at 37° C. 2 mL of the reaction solution was taken to mix with 500 μl of Griess reagent at 1 h respectively, standing at room temperature for 10 min. The absorbance value of the mixture at 540 nm was measured. Isosorbide mononitrate was used as a positive control, and H130 was used as a negative control. The amount of the released NO was represented by the amount of its oxidation product, nitrite (NO2^−).

[2] = system: ApoA-I mRNA; experiment: Regulation of ApoA-I mRNA in HepG2 cells (real-time PCR); type: cell-based; set-up: key: Active: When 100 μM of the tested compound allowed ApoA-I mRNA in HepG2 cells to increase more than 15%, then the test compound was known as an ApoA active compound; conditions: 100 μM, 48 h, relative to DMSO control
Protocol: Experiment 5. Regulation of the Tested Compounds on ApoA-I mRNA HepG2 cells were cultured for 24 h in a 24-well plate with 400 μl of MEM medium containing 0.5% (v/v) of fetal bovine serum. Then each of the tested compounds (100 μM) and the positive control RVX-208 (100 μM) were added. The cells were cultured for another 48 h. The medium was aspirated out. After washing with 200 μl of PBS, 85 μl of cell lysis solution was added into the cells in each well. The cells were incubated at room temperature for 5 to 10 min to be completely dissolved and detached. The mRNA was extracted from the cells with a kit. The extracted mRNA were used for a real-time fluorescence quantitative PCR detection with RNA Fluorescence (RiboGreen) Quantitation Assay Kit and ApoA-I mRNA Primer-Probe Mixture from the company of Applied Biosystems.
After obtaining the Ct values, the induction fold of each test compound relative to DMSO control was calculated. The induction fold was used to reflect the ability of regulating ApoA-I mRNA for the tested compounds. When 100 μM of the tested compound allowed ApoA-I mRNA in HepG2 cells to increase more than 15%, then the test compound was known as an ApoA active compound.

[3] = rat, in vivo
Protocol: Experimental method: Intravenous injection solutions (the administration concentrations of the tested compounds were 1 mg/kg) and oral gastric perfusates (the administration concentrations of the test compounds were 5 mg/kg) of the test compounds were prepared, and intravenously and orally administered to three SD rats, respectively. The concentrations of the whole blood for H130 at 0.083 h, 0.25 h, 0.5 h, 1 h, 2 h, 4 h, 8 h, and 24 h after administration were determined by LC-MS/MS, respectively. The pharmacokinetic parameters were compared by a drug-time curve. Sample pretreatment: 150 μL of the whole blood to be tested was aspirated accurately. 600 μL of internal standard solution (diluted to 0.5 μg/mL with methanol) was added, sufficiently mixed by a vortex mixer, and centrifuged at 13000 r/min for 20 min at 4° C. 3 μL of the supernatant was taken into a sample vial.
Chromatographic conditions: C18 reversed-phase chromatographic column; gradient elution with mobile phase A: water/acetonitrile (v:v=95:5) with 0.025% of formic acid and 1 mM of ammonium acetate added thereto, and mobile phase B: acetonitrile/water (v:v=95:5) with 0.025% of formic acid and 1 mM of ammonium acetate added thereto.

[4] = Plasma stability in vitro, mouse plasma; conditions: CD-1 mice plasma, 2 μM, 37° C., in % (unit assumed)
Protocol: (§1) Experimental method: The tested compounds (2 μM) were added into mouse or human plasma, and incubated at 37° C. Samples were taken at 0, 10, 30, 60 and 120 min respectively. The reaction was stopped by adding a stop agent. The mixture was sufficient shaken, and centrifuged at 4000 rpm for 10 min at 4° C. The supernatant was taken. The concentrations of the tested compounds and their metabolite (H130) in the supernatant were measured by LC-MS/MS.

[5] = Plasma stability in vitro, human plasma; conditions: for Content of Tested Substance (n = 2): human plasma, 2 μM, 37° C., in % (unit assumed); for stability in human plasma: within 2 h
Protocol: as §1

[6] = Release of HNO (headspace gas chromatography of nitrous oxide); conditions: for Molar Quantities of N2O/Sample: PBS pH 7.4, 37° C., argon, 90 min
Protocol: Experiment 2. Experimental study on the tested compounds for releasing HNO HNO rapidly dimerizes and dehydrates to produce nitrous oxide in aqueous solution. In the experiment of detecting HNO, gas chromatographic headspace analysis is generally used to determine the amount of the released nitrous oxide, thereby indirectly detect the level of releasing HNO of the compound.
Experimental procedure: Each of the tested compounds was prepared to 20 mg/mL of mother liquor with DMF. Prior to the start of the experiment, 50 μL of drug mother liquor was placed into a 20 mL headspace sample vial. The tested compound was diluted by adding 5 mL of PBS buffer with pH 7.4. The temperature of the resulting sample was kept at 37° C. under argon gas for 90 min. Then the top gas was extracted for gas chromatographic analysis of nitrous oxide by using Angeli's Salt as a positive compound in the experiment.

[7] = system: db/db mice; experiment: Serum NO and heart eNOS in db/db mice after oral gavage; type: in vivo; conditions: blank = 100, oral gavage 150 mg/kg (isosorbide mononitrate 5 mg/kg), 1 h after administration (H101: 2 h)
Text: Experimental method: 25 eight-week-old db/db mice (strain: BKS.Cg−+Leprdb/+leprdb/JclSlac; grade: SPF; gender: male; source: Shanghai SLAC Laboratory Animal Co., Ltd.) were selected. 3 of them were selected as the blank administration control. 2 mice were used as the positive drug control (isosorbide mononitrate). The remaining 20 mice were randomly divided into 5 groups, 4 mice per group, which are H101 administration group, H111 administration group, H116 administration group, H119 administration group, and H130 administration group. The tested compounds of the positive drug control group and each administration group were dissolved in DMSO. Then PEG400 was added. The mixture was shaken and mixed thoroughly. At last, 10% of HP-β-CD was added. The mixture was shaken and mixed thoroughly. The ratio of each solvent was DMSO: PEG400:10% of HP-β-CD=5:67.5:27.5. The administration group was administered by oral gavage at the dose of 150 mg/kg. The positive drug control group was administered at the dose of 5 mg/kg. The mice in the H101 administration group were sacrificed at 2 h after the administration. The mice in the remaining administration groups were sacrificed at 1 h after the administration. The blood was collected respectively into 1.5 mL centrifuge tube, standing at room temperature for more than 30 min, and then centrifuged (3000 rpm, 10 min). The supernatant serum was aspirated, and stored at −80° C. for testing. After the blood was collected, the heart was cut with the thoracic aorta. Three parts of the heart were weighed and placed into cryovials, rapidly frozen in liquid nitrogen, and cryopreserved at −80° C. for testing. The aorta and aortic arch were weighed, rapidly frozen in liquid nitrogen, and cryopreserved at −80° C. for testing. The content of NO in the serum of the […] mice was determined by a total NO test kit (Beyotime). The content of NOS in the heart of the mice was determined with an NOS test kit (Beyotime). The content of eNOS was calculated by the difference between the measured values before and after adding the eNOS inhibitor L-NAME (Beyotime).

[8] = system: apoE−/− mice; experiment: apoE−/− mouse atherosclerosis model, high-fat diet 10 weeks; type: in vivo
Text: Experimental method: 36 eight-week-old male apoE-/- mice were selected and randomly divided into a blank administration group, an […] administration group, an […] administration group, an […] administration group, an […] administration group, and an […] administration group, 6 mice per group. The mice in each group were fed with high-fat diet for 10 weeks. At the beginning of the high-fat feeding, the mice in each group were administrated. Each tested compound was intragastric administered at the dose of 150 mg/kg twice a day. The blank administration group was given corresponding dose of saline. […] After the blood was taken, the serum, heart, and aorta were isolated. The levels of total cholesterol (TC), high density lipoprotein cholesterol (HDL-C), and low density lipoprotein cholesterol (LDL-C) in the serum of the mice in each group were measured by automatic biochemical analyzer. The ApoA1 expression level was detected with an ApoA1 kit. The content of NO in the serum of the mice was determined with a total NO test kit (Beyotime). The NOS activities of the heart, aorta, and serum were determined with an NOS test kit (Beyotime). The content of eNOS was calculated by the difference between the measured values determined before and after adding eNOS inhibitor L-NAME (Beyotime).

[9] = blank administration group = 100, 150 mg/kg twice a day, 10 weeks
[10] = serum, high-fat diet 10 weeks, intragastric 150 mg/kg twice a day

Row | SMILES | Amount of Released No [1] | Upregulation of Apoa-I Mrna Level [2] | Content of Tested Substance (n = 2) ([4]; 0 min) | Content of Tested Substance (n = 2) ([4]; 10 min) | Content of Tested Substance (n = 2) ([4]; 30 min) | Content of Tested Substance (n = 2) ([4]; 60 min) | Content of Tested Substance (n = 2) ([4]; 120 min) | Content of Tested Substance (n = 2) ([5]; 0 min) | Content of Tested Substance (n = 2) ([5]; 10 min) | Content of Tested Substance (n = 2) ([5]; 30 min) | Content of Tested Substance (n = 2) ([5]; 60 min) | Content of Tested Substance (n = 2) ([5]; 120 min) | stability in human plasma [5] | Molar Quantities of N2O/Sample [6] | further results
1 | COc1cc(OC)c2c(=O)[nH]c(-c3cc(C)c(OCCOC(=O)CCC(=O)OCC(CO[N+](=O)[O-])(CO[N+](=O)[O-])CO[N+](=O)[O-])c(C)c3)nc2c1 [Compound H106, 2-[4-(5,7-dimethoxy-4-oxo-3,4-dihydro-quinazolin-2-yl)-2,6-dimethyl-phenoxy]-ethyl 3-(nitroxy)-2,2-di((nitroxy)methyl) propyl succinate] | 2.56 µM | Active |  |  |  |  |  |  |  |  |  |  |  |  | 
2 | COc1cc(OC)c2c(=O)[nH]c(-c3cc(C)c(OCCOC(=O)CC(N)C(=O)OCC(CO[N+](=O)[O-])O[N+](=O)[O-])c(C)c3)nc2c1.Cl (centres unmarked) [Compound H118, 1-(2,3-dinitroxy-propyl) 4-{2-[4-(5,7-dimethoxy-4-oxo-3,4-dihydro-quinazolin-2-yl)-2,6-dimethyl-phenoxy]-ethyl}2-amino-succinate hydrochloride] | 1.74 µM | Active |  |  |  |  |  |  |  |  |  |  |  |  | release of prototype compound H130 after administration [3]: can be rapidly released; AUCRatio (Dosage Calibration) ([3]; iv, 1 mg/kg): 19.2%; AUCRatio (Dosage Calibration) ([3]; po, 5 mg/kg): 14.1%
3 | COc1cc(OC)c2c(=O)[nH]c(-c3cc(C)c(OCCOC(=O)CNC(=O)CCCO[N+](=O)[O-])c(C)c3)nc2c1 [Compound H109, 2-[4-(5,7-dimethoxy-4-oxo-3,4-dihydro-quinazolin-2-yl)-2,6-dimethyl-phenoxy]-ethyl (4-nitroxy-butyrylamido)-acetate] | 1.49 µM | Active |  |  |  |  |  |  |  |  |  |  |  |  | 
4 | COc1cc(OC)c2c(=O)[nH]c(-c3cc(C)c(OCCOC(=O)ONS(=O)(=O)c4ccc(C)s4)c(C)c3)nc2c1 [Compound H103, N-((2-(4-(5,7-dimethoxy-4-oxo-3,4-dihydroquinazolin-2-yl)-2,6-dimethylphenoxy)ethoxy)carbonyloxy)-5-methylthiophene-2-sulfonamide] |  |  | 100.0 | 0.0 | 0.0 | 0.0 | 0.0 | 100.0 | 97.3 | 89.6 | 83.3 | 86.9 | good stability | 19.7% | 
5 | COc1cc(OC)c2c(=O)[nH]c(-c3cc(C)c(OCCOC(=O)CCC(CO[N+](=O)[O-])O[N+](=O)[O-])c(C)c3)nc2c1 (centres unmarked) [Compound H108, 2-[4-(5,7-dimethoxy-4-oxo-3,4-dihydro-quinazolin-2-yl)-2,6-dimethyl-phenoxy]-ethyl 4,5-dinitroxy-pentanoate] | 0.33 µM | Active | 100.0 | 0.5 | 0.3 | 1.7 | 0.3 | 100.0 | 101.5 | 95.5 | 93.8 | 85.3 | good stability |  | 
6 | COc1cc(OC)c2c(=O)[nH]c(-c3cc(C)c(OCCO)c(C)c3)nc2c1 [Compound H130, 2-(4-(2-hydroxyethoxy)-3,5-dimethylphenyl)-5,7-dimethoxyquinazoline-4(3H)-one, reference compound] | -1.03 µM |  |  |  |  |  |  |  |  |  |  |  |  | −0.15% | Heart eNOS [7]: 123%; Serum NO [7]: 111%; Aorta eNOS [8, 9]: 105%; ApoA1 [8, 9]: 130%; Heart eNOS [8, 9]: 115%; Serum NO [8, 9]: 108%; Serum eNOS [8, 9]: 107%; HDL-C [8, 10]: 86 ± 13 mg/dL; LDL-C [8, 10]: 273 ± 33 mg/dL; TC [8, 10]: 1005 ± 44 mg/dL; HNO release detected ([6]; within 1.5 h): no HNO release can be detected
